According to PMC6364417, “Kinase inhibitor library screening identifies synergistic drug combinations effective in sensitive and resistant melanoma cells” (Journal of Experimental & Clinical Cancer Research : CR, 2019):
Read-outs that look alike come from different tables or passages of the source.

Columns and labels:
Assay in all cases: Kinase inhibitor library screening, PrestoBlue cell viability, 1 or 10 μM, 72 h
IGR37 cells (parental) = settings: for Cell viability in kinase inhibitor library screening, IGR37 Parental, 10μΜ / Cell viability in kinase inhibitor library screening, IGR37 Parental, 1μΜ: in %
501Mel cells (parental) = settings: for Cell viability in kinase inhibitor library screening, 501Mel Parental, 1μΜ / Cell viability in kinase inhibitor library screening, 501Mel Parental, 10μΜ: in %
Outline: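 Each compound was applied to parental melanoma cells and to derivatives made resistant to Vemurafenib or Dabrafenib. After treatment, viability was read with PrestoBlue on a plate reader and expressed as % of untreated cells, with each line run at least in duplicate.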

[1] = tested on: IGR37-GP cells (Dabrafenib-resistant); settings: for Cell viability in kinase inhibitor library screening, IGR37 GP, 1μΜ: in %
[2] = tested on: 501Mel-XP cells (Vemurafenib-resistant); settings: for Cell viability in kinase inhibitor library screening, 501Mel XP, 1μΜ / Cell viability in kinase inhibitor library screening, 501Mel XP, 10μΜ: in %
[3] = tested on: A375-GP cells (Dabrafenib-resistant)
A375 cells (parental) = tested on: A375 cells (parental)
[4] = tested on: IGR37-XP cells (Vemurafenib-resistant); settings: for Cell viability in kinase inhibitor library screening, IGR37 XP, 1μΜ: in %
[5] = tested on: A375-XP cells (Vemurafenib-resistant)
[6] = tested on: 501Mel-GP cells (Dabrafenib-resistant); settings: for Cell viability in kinase inhibitor library screening, 501Mel GP, 1μΜ / Cell viability in kinase inhibitor library screening, 501Mel GP, 10μΜ: in %

Compound | Cell viability in kinase inhibitor library screening, IGR37 Parental, 10μΜ (IGR37 cells (parental); IGR37 Parental, 10μΜ, 72 h) | Cell viability in kinase inhibitor library screening, 501Mel Parental, 1μΜ (501Mel cells (parental); 501Mel Parental, 1μΜ, 72 h) | Cell viability in kinase inhibitor library screening, 501Mel Parental, 10μΜ (501Mel cells (parental); 501Mel Parental, 10μΜ, 72 h) | Cell viability in kinase inhibitor library screening, IGR37 GP, 10μΜ ([1]; IGR37 GP, 10μΜ, 72 h) | Cell viability in kinase inhibitor library screening, IGR37 GP, 1μΜ ([1]; IGR37 GP, 1μΜ, 72 h) | Cell viability in kinase inhibitor library screening, 501Mel XP, 1μΜ ([2]; 501Mel XP, 1μΜ, 72 h) | Cell viability in kinase inhibitor library screening, 501Mel XP, 10μΜ ([2]; 501Mel XP, 10μΜ, 72 h) | Cell viability in kinase inhibitor library screening, A375 GP, 1μΜ ([3]; A375 GP, 1μΜ, 72 h) | Cell viability in kinase inhibitor library screening, A375 GP, 10μΜ ([3]; A375 GP, 10μΜ, 72 h) | Cell viability in kinase inhibitor library screening, A375 Parental, 10μΜ (A375 cells (parental); A375 Parental, 10μΜ, 72 h) | Cell viability in kinase inhibitor library screening, A375 Parental, 1μΜ (A375 cells (parental); A375 Parental, 1μΜ, 72 h) | Cell viability in kinase inhibitor library screening, IGR37 XP, 10μΜ ([4]; IGR37 XP, 10μΜ, 72 h) | Cell viability in kinase inhibitor library screening, IGR37 XP, 1μΜ ([4]; IGR37 XP, 1μΜ, 72 h) | Cell viability in kinase inhibitor library screening, A375 XP, 1μΜ ([5]; A375 XP, 1μΜ, 72 h) | Cell viability in kinase inhibitor library screening, A375 XP, 10μΜ ([5]; A375 XP, 10μΜ, 72 h) | Cell viability in kinase inhibitor library screening, 501Mel GP, 1μΜ ([6]; 501Mel GP, 1μΜ, 72 h) | Cell viability in kinase inhibitor library screening, 501Mel GP, 10μΜ ([6]; 501Mel GP, 10μΜ, 72 h) | Cell viability in kinase inhibitor library screening, IGR37 Parental, 1μΜ (IGR37 cells (parental); IGR37 Parental, 1μΜ, 72 h) | other results
Oc1cccc(-c2nc(N3CCOCC3)c3oc4ncccc4c3n2)c1 [PI-103] |  |  |  |  |  |  |  |  |  |  |  |  |  |  |  |  |  |  | viability at 1 µM (IGR37 cells (parental); Homo sapiens, IGR-37, 72 h, read-out: cell viability, IGR37 Parental, 1μΜ): 76.3%; viability at 10 µM (IGR37 cells (parental); Homo sapiens, IGR-37, 72 h, read-out: cell viability, IGR37 Parental, 10μΜ): 10.6%; viability at 1 µM (501Mel cells (parental); Homo sapiens, 72 h, read-out: cell viability, 501Mel Parental, 1μΜ): 36.3%; viability at 10 µM (501Mel cells (parental); Homo sapiens, 72 h, read-out: cell viability, 501Mel Parental, 10μΜ): 1.1%; viability at 1 µM ([1]; Homo sapiens, IGR-37, 72 h, read-out: cell viability, IGR37 GP, 1μΜ): 87.6%; viability at 10 µM ([1]; Homo sapiens, IGR-37, 72 h, read-out: cell viability, IGR37 GP, 10μΜ): 3.8%; viability at 1 µM ([2]; Homo sapiens, 72 h, read-out: cell viability, 501Mel XP, 1μΜ): 13.4%; viability at 10 µM ([2]; Homo sapiens, 72 h, read-out: cell viability, 501Mel XP, 10μΜ): -0.0754%; viability at 1 µM ([3]; Homo sapiens, A-375, 72 h, read-out: cell viability, A375 GP, 1μΜ): 55.6%; viability at 10 µM ([3]; Homo sapiens, A-375, 72 h, read-out: cell viability, A375 GP, 10μΜ): 20.2%; viability at 1 µM (A375 cells (parental); Homo sapiens, A-375, 72 h, read-out: cell viability, A375 Parental, 1μΜ): 61.4%; viability at 10 µM (A375 cells (parental); Homo sapiens, A-375, 72 h, read-out: cell viability, A375 Parental, 10μΜ): 24.2%; viability at 1 µM ([4]; Homo sapiens, IGR-37, 72 h, read-out: cell viability, IGR37 XP, 1μΜ): 80.5%; viability at 10 µM ([4]; Homo sapiens, IGR-37, 72 h, read-out: cell viability, IGR37 XP, 10μΜ): 0.328%; viability at 1 µM ([5]; Homo sapiens, A-375, 72 h, read-out: cell viability, A375 XP, 1μΜ): 49.4%; viability at 10 µM ([5]; Homo sapiens, A-375, 72 h, read-out: cell viability, A375 XP, 10μΜ): 20.8%; viability at 1 µM ([6]; Homo sapiens, 72 h, read-out: cell viability, 501Mel GP, 1μΜ): 20%; viability at 10 µM ([6]; Homo sapiens, 72 h, read-out: cell viability, 501Mel GP, 10μΜ): 3.4%
COc1ccc2c(c1OC)N=C(NC(=O)c1cccnc1)N1CCN=C21 [PIK-90] | 82.3 | 97.1 | 71.7 | 60.2% | 89.1 | 85.8 | 43.2 | 90.1 | 52.7 | 58.0 | 94.8 | 19.4% | 85.5 | 91.5 | 58.7 | 98.4 | 50.5 |  | 
CC(=O)Nc1nc(C)c(-c2ccc(Cl)c(S(=O)(=O)NCCO)c2)s1 [PIK-93] |  |  |  |  |  |  |  |  |  |  |  |  |  |  |  |  |  |  | Cell viability in kinase inhibitor library screening, IGR37 Parental, 1μΜ (IGR37 cells (parental)): 96.9; Cell viability in kinase inhibitor library screening, IGR37 Parental, 10μΜ (IGR37 cells (parental)): 72.6; Cell viability in kinase inhibitor library screening, 501Mel Parental, 1μΜ (501Mel cells (parental)): 88.1; Cell viability in kinase inhibitor library screening, 501Mel Parental, 10μΜ (501Mel cells (parental)): 25.0; Cell viability in kinase inhibitor library screening, IGR37 GP, 10μΜ [1]: 59.9%; Cell viability in kinase inhibitor library screening, IGR37 GP, 1μΜ [1]: 91.0; Cell viability in kinase inhibitor library screening, 501Mel XP, 1μΜ [2]: 90.7; Cell viability in kinase inhibitor library screening, 501Mel XP, 10μΜ [2]: 10.6; Cell viability in kinase inhibitor library screening, A375 GP, 1μΜ [3]: 97.8; Cell viability in kinase inhibitor library screening, A375 GP, 10μΜ [3]: 37.8; Cell viability in kinase inhibitor library screening, A375 Parental, 1μΜ (A375 cells (parental)): 97.3; Cell viability in kinase inhibitor library screening, A375 Parental, 10μΜ (A375 cells (parental)): 47.7; Cell viability in kinase inhibitor library screening, IGR37 XP, 10μΜ [4]: 27.5%; Cell viability in kinase inhibitor library screening, IGR37 XP, 1μΜ [4]: 84.1; Cell viability in kinase inhibitor library screening, A375 XP, 1μΜ [5]: 88.7; Cell viability in kinase inhibitor library screening, A375 XP, 10μΜ [5]: 36.0; Cell viability in kinase inhibitor library screening, 501Mel GP, 1μΜ [6]: 98.2; Cell viability in kinase inhibitor library screening, 501Mel GP, 10μΜ [6]: 25.1
CCn1nnc2c(N3CCOCC3)nc(-c3ccc(NC(=O)Nc4ccc(C(=O)N5CCN(C)CC5)cc4)cc3)nc21 [PKI-402] | 2.7 | 15.4 | 0.476 | 3.4% | 66.1 | 15.3 | -0.1 | 23.7 | 9.7 | 12.7 | 21.3 | 1.9% | 25.5 | 20.0 | 8.5 | 21.4 | 0.548 | 35.8 | 
CCCS(=O)(=O)Nc1ccc(F)c(C(=O)c2c[nH]c3ncc(Cl)cc23)c1F [PLX-4720] | 31.4 | 63.2 | 55.8 | 79% | 97.0 | 96.2 | 64.4 | 83.9 | 78.1 | 14.6 | 32.1 | 52.5% | 99.4 | 102.9 | 79.1 | 104.7 | 77.9 | 44.1 | 
COc1ccc(COc2cc3oc(=O)c4cc(C(C)O)ccc4c3cc2OC)cc1 (stereo not shown) [Palomid 529] | 103.1 | 87.4 | 80.1 | 75.1% | 87.7 | 95.5 | 30.6 | 94.7 | 88.6 | 83.6 |  | 46.5% | 98.2 | 100.3 | 90.5 | 90.2 | 80.5 | 102.9 | 
